Laboratory results as given in article PMC7161708 (Acta Pharmaceutica Sinica. B, 2019).
Where “and” joins values, the source holds several entries; their conditions need not be identical. Identical values can stand only once. Like-named read-outs stand apart in the source and are kept apart here.

Legend:
[1] = from PAMPA–BBB Pe
SH-SY5Y cells = experiment: Cell viability assay; type: cell-based; details: 24 h
in vitro = details: PAMPA
BV2 cells = experiment: Cell viability assay, BV2 cells; type: cell-based; details: 24 h; for Cytotoxicity on BV2 cells: 2, 5, 10, 20, 40 μmol/L; for Cell viability of BV2 cells at high concentration: 80, 160 μmol/L
[2] = tested on: phosphorylation of p70S6K; experiment: Inhibition of p70S6K phosphorylation, α-screen assay in SH-SY5Y cell; type: cell-based; details: mean ± SD (n ≥ 3)
Aβ1−40 and Aβ1−42 = experiment: Aβ clearance ELISA assay in BV2 cell; type: cell-based; details: 5, 10 and 20 μmol/L, 24 h, then 2 μg/mL soluble Aβ for 3 h
[3] = tested on: APP/PS1 transgenic AD model mice; experiment: Morris Water Maze assay in APP/PS1 transgenic mice; type: in vivo; details: 100 days, compared with TV group
LC3 II, Beclin 1 and p62 = experiment: Western blot of autophagy marker proteins in BV2 cells; type: cell-based; details: 24 h
[4] = tested on: phosphorylation of AKT, mTOR, p70S6K and ULK1; experiment: Western blot of AKT/mTOR/ULK1 signaling pathway in BV2 cells; type: cell-based; details: 20, 10, 5 μmol/L, 24 h
hERG potassium channels = hERG potassium channels (Homo sapiens, UniProt Q12809); experiment: hERG inhibition patch clamp assay
Aβ40/42 = Aβ40/42 level in brain of APP/PS1 transgenic mice, ELISA; type: in vivo; details: oral, 100 days, compared with TV group
[5] = tested on: APP/PS1 transgenic AD model mice; experiment: Nesting test in APP/PS1 transgenic mice; type: in vivo; details: 30 mg/kg orally, 100 days, compared with TV group
[6] = tested on: phosphorylation of tau protein; experiment: Tau phosphorylation Western blot in SH-SY5Y cell; type: cell-based; details: 5, 10 and 20 μmol/L, 24 h
[7] = tested on: p70S6K and tau phosphorylation; type: in vivo; details: APP/PS1 transgenic mice
autophagy in BV2 cells = experiment: Autophagic flux assay; type: cell-based; details: 20 μmol/L, 24 h, compared with the control group

Sequence of hERG potassium channels (Q12809 whole entry): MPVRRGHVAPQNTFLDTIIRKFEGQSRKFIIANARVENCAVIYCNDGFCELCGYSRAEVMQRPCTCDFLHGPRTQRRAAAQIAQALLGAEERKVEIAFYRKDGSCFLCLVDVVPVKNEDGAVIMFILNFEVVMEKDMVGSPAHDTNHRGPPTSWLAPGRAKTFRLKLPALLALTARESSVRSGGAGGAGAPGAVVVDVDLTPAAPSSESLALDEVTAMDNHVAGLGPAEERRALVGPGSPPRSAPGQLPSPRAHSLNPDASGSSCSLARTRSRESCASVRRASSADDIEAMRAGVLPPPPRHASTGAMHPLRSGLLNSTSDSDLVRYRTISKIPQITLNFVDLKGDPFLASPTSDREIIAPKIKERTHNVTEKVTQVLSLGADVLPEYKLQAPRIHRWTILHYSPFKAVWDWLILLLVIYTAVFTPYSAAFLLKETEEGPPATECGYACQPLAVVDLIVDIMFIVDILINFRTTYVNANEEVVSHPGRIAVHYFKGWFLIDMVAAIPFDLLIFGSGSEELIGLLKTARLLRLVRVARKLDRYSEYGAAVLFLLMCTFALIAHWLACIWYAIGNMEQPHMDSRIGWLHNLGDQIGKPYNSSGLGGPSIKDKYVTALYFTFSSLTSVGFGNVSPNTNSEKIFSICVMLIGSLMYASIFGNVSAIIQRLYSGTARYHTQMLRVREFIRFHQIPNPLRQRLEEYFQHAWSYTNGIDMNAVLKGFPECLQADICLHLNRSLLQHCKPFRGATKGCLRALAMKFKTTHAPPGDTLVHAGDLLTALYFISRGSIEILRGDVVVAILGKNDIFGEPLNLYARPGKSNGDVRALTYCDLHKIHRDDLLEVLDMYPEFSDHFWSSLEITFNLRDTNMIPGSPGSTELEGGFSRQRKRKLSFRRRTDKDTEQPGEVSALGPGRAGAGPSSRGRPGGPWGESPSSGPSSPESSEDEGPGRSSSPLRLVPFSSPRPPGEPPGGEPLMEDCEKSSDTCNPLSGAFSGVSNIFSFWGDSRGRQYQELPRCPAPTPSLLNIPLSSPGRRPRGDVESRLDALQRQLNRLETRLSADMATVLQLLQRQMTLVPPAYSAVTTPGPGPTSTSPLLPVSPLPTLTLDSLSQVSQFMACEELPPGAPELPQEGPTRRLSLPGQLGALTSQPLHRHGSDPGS

## CC(=O)Oc1ccccc1C(=O)Nc1ncc(N2CCOCC2)s1 [Compound 12, 2-Acetyloxy-N-(5-morpholinothiazol-2-yl)benzamide]
[1]
  Prediction of BBB penetration: CNS+ (Compounds with permeabilities Pe > 3.08 × 10^−6 cm/s could cross the BBB by passive diffusion (CNS+))
SH-SY5Y cells
  Concentration at which viability of SH-SY5Y cells decreased: 5 µM
In vitro
  Papp at 10 h, 100 μg/mL: 5.76 ± 0.57 ×10⁻⁶ cm/s
BV2 cells
  Concentration at which viability of BV2 cells began to decrease: 20 µM
[2]
  Inhibition ratio of p70S6K phosphorylation at 20 μmol/L (%): 85.20% and 85.20±1.76%

## O=C(Nc1ncc(N2CCOCC2)s1)c1cccc(O)c1 [Compound 20, 3-Hydroxy-N-(5-morpholinothiazol-2-yl)benzamide]
[1]
  Prediction of BBB penetration: CNS− (Compounds with Pe < 1.13 × 10^−6 cm/s show low BBB permeation (CNS−))
In vitro
  Papp at 10 h, 100 μg/mL: 0.45 ± 0.03 ×10⁻⁶ cm/s
[2]
  Inhibition ratio of p70S6K phosphorylation at 20 μmol/L (%): 83.86±1.54%

## O=C(Nc1ncc(N2CCOCC2)s1)c1ccc(O)cc1 [Compound 21, 4-Hydroxy-N-(5-morpholinothiazol-2-yl)benzamide]
[1]
  Prediction of BBB penetration: CNS− (Compounds with Pe < 1.13 × 10^−6 cm/s show low BBB permeation (CNS−))
In vitro
  Papp at 10 h, 100 μg/mL: 0.09 ± 0.01 ×10⁻⁶ cm/s
[2]
  Inhibition ratio of p70S6K phosphorylation at 20 μmol/L (%): 79.20±1.87%

## CC(=O)Oc1cccc(C(=O)Nc2ncc(N3CCOCC3)s2)c1 [Compound 22, 3-Acetyloxy-N-(5-morpholinothiazol-2-yl)benzamide]
[1]
  Prediction of BBB penetration: CNS+ (Compounds with permeabilities Pe > 3.08 × 10^−6 cm/s could cross the BBB by passive diffusion (CNS+))
Aβ1−40 and Aβ1−42
  Aβ1−40 and Aβ1−42 content in the cell (ELISA): dose-dependently decreased both Aβ1−40 and Aβ1−42 content
[3]; 10 mg/kg orally
  Escape latencies in MWM assay: significantly reduced the escape latencies
[3]; 30 mg/kg orally
  Crossing times in MWM probe trial: significantly increased the crossing times
  Escape latencies in MWM assay: significantly reduced the escape latencies
SH-SY5Y cells
  Cytotoxicity on SH-SY5Y cells: low cytotoxicity
LC3 II, Beclin 1 and p62
  Protein levels of Beclin 1, LC3 II and p62 (Western blot): upregulate the protein levels of Beclin 1 and LC3 II, and decrease the p62 protein level
[4]
  Phosphorylation of AKT, mTOR, p70S6K (Western blot): dose-dependently suppressed the phosphorylation of AKT, mTOR, p70S6K
  ULK1 phosphorylation at Ser 757 (Western blot): decreased ULK1 phosphorylation at Ser 757
hERG potassium channels
  IC50: > 40 µM
Aβ40/42
  Aβ40/42 level in cerebral cortex and hippocampus (ELISA): significantly reduced Aβ40/42 level
[5]
  Nesting test: obvious improvement in nesting test
[6]
  Tau phosphorylation at Ser199, 396 and Tyr231 (Western blot): dose-dependently inhibited tau phosphorylation
In vitro
  Papp at 10 h, 100 μg/mL: 6.02 ± 0.27 ×10⁻⁶ cm/s
[7]; 10 mg/kg
  p70S6K phosphorylation level in the cortex (Western blot): significantly reduce the p70S6K phosphorylation level
[7]; 30 mg/kg
  p70S6K phosphorylation level in the cortex (Western blot): significantly reduce the p70S6K phosphorylation level
BV2 cells
  Cytotoxicity on BV2 cells: no cytotoxicity
  Cell viability of BV2 cells at high concentration: decreased
Autophagy in BV2 cells
  Numbers of yellow and red mTagRFP-mWasabi-LC3 puncta: increased the numbers of both yellow and red puncta
[2]
  Inhibition ratio of p70S6K phosphorylation at 20 μmol/L (%): 88.95% and 88.95±0.78%

## CC(=O)Oc1ccc(C(=O)Nc2ncc(N3CCOCC3)s2)cc1 [Compound 23, 4-Acetyloxy-N-(5-morpholinothiazol-2-yl)benzamide]
[1]
  Prediction of BBB penetration: CNS+ (Compounds with permeabilities Pe > 3.08 × 10^−6 cm/s could cross the BBB by passive diffusion (CNS+))
In vitro
  Papp at 10 h, 100 μg/mL: 4.92 ± 0.31 ×10⁻⁶ cm/s
[2]
  Inhibition ratio of p70S6K phosphorylation at 20 μmol/L (%): 84.96±0.98%

## O=C(Nc1ncc(N2CCOCC2)s1)c1ccccc1 [Compound 24, N-(5-Morpholinothiazol-2-yl)benzamide]
[1]
  Prediction of BBB penetration: CNS+ (Compounds with permeabilities Pe > 3.08 × 10^−6 cm/s could cross the BBB by passive diffusion (CNS+))
In vitro
  Papp at 10 h, 100 μg/mL: 12.6 ± 1.22 ×10⁻⁶ cm/s
[2]
  Inhibition ratio of p70S6K phosphorylation at 20 μmol/L (%): 77.51±1.48%

## O=C(Nc1ncc(N2CCOCC2)s1)c1cccc2ccccc12 [Compound 30, N-(5-Morpholinothiazol-2-yl)-1-naphthamide]
[1]
  Prediction of BBB penetration: CNS+ (Compounds with permeabilities Pe > 3.08 × 10^−6 cm/s could cross the BBB by passive diffusion (CNS+))
In vitro
  Papp at 10 h, 100 μg/mL: 5.76 ± 0.55 ×10⁻⁶ cm/s
[2]
  Inhibition ratio of p70S6K phosphorylation at 20 μmol/L (%): 78.75±2.50%

## O=C(Nc1ncc(N2CCOCC2)s1)c1ccc2ccccc2c1 [Compound 31, N-(5-Morpholinothiazol-2-yl)-2-naphthamide]
[1]
  Prediction of BBB penetration: CNS+ (Compounds with permeabilities Pe > 3.08 × 10^−6 cm/s could cross the BBB by passive diffusion (CNS+))
In vitro
  Papp at 10 h, 100 μg/mL: 3.42 ± 0.07 ×10⁻⁶ cm/s
[2]
  Inhibition ratio of p70S6K phosphorylation at 20 μmol/L (%): 80.96±1.60%

## O=C(Nc1ncc(N2CCOCC2)s1)c1ccco1 [Compound 32, N-(5-Morpholinothiazol-2-yl)furan-2-carboxamide]
[1]
  Prediction of BBB penetration: CNS+ (Compounds with permeabilities Pe > 3.08 × 10^−6 cm/s could cross the BBB by passive diffusion (CNS+))
In vitro
  Papp at 10 h, 100 μg/mL: 6.16 ± 0.5 ×10⁻⁶ cm/s
[2]
  Inhibition ratio of p70S6K phosphorylation at 20 μmol/L (%): 81.09±4.27%

## O=C(Nc1ncc(N2CCOCC2)s1)c1cccs1 [Compound 33, N-(5-Morpholinothiazol-2-yl)thiophene-2-carboxamide]
[1]
  Prediction of BBB penetration: CNS+ (Compounds with permeabilities Pe > 3.08 × 10^−6 cm/s could cross the BBB by passive diffusion (CNS+))
In vitro
  Papp at 10 h, 100 μg/mL: 10.4 ± 1.25 ×10⁻⁶ cm/s
[2]
  Inhibition ratio of p70S6K phosphorylation at 20 μmol/L (%): 79.80±5.03%

## O=C(Nc1ncc(N2CCOCC2)s1)c1ccoc1 [Compound 34, N-(5-Morpholinothiazol-2-yl)furan-3-carboxamide]
[1]
  Prediction of BBB penetration: CNS+ (Compounds with permeabilities Pe > 3.08 × 10^−6 cm/s could cross the BBB by passive diffusion (CNS+))
In vitro
  Papp at 10 h, 100 μg/mL: 6.82 ± 0.5 ×10⁻⁶ cm/s
[2]
  Inhibition ratio of p70S6K phosphorylation at 20 μmol/L (%): 80.23±0.88%

## O=C(Nc1ncc(N2CCOCC2)s1)c1ccsc1 [Compound 35, N-(5-Morpholinothiazol-2-yl)thiophene-3-carboxamide]
[1]
  Prediction of BBB penetration: CNS+ (Compounds with permeabilities Pe > 3.08 × 10^−6 cm/s could cross the BBB by passive diffusion (CNS+))
In vitro
  Papp at 10 h, 100 μg/mL: 9.24 ± 0.47 ×10⁻⁶ cm/s
[2]
  Inhibition ratio of p70S6K phosphorylation at 20 μmol/L (%): 79.84±1.17%

## O=C(Nc1ncc(N2CCOCC2)s1)c1ccc(Cl)s1 [Compound 36, 5-Chloro-N-(5-morpholinothiazol-2-yl)thiophene-2-carboxamide]
[1]
  Prediction of BBB penetration: CNS+ (Compounds with permeabilities Pe > 3.08 × 10^−6 cm/s could cross the BBB by passive diffusion (CNS+))
SH-SY5Y cells
  Cytotoxicity on SH-SY5Y cells: low cytotoxicity
LC3 II, Beclin 1 and p62
  Protein levels of Beclin 1, LC3 II and p62 (Western blot): upregulate the protein levels of Beclin 1 and LC3 II, and decrease the p62 protein level
[4]
  Phosphorylation of AKT, mTOR, p70S6K (Western blot): effectively inhibit the phosphorylation of AKT, mTOR, and p70S6K
  ULK1 phosphorylation at Ser 757 (Western blot): no effect on the ULK1 phosphorylation
In vitro
  Papp at 10 h, 100 μg/mL: 10.62 ± 0.1 ×10⁻⁶ cm/s
BV2 cells
  Cytotoxicity on BV2 cells: no cytotoxicity
  Cell viability of BV2 cells at high concentration: decreased
Autophagy in BV2 cells
  Numbers of yellow and red mTagRFP-mWasabi-LC3 puncta: increased the numbers of both yellow and red puncta
[2]
  Inhibition ratio of p70S6K phosphorylation at 20 μmol/L (%): 83.32±0.41%

## Cc1ccc(C(=O)Nc2ncc(N3CCOCC3)s2)s1 [Compound 37, 5-Methyl-N-(5-morpholinothiazol-2-yl)thiophene-2-carboxamide]
[1]
  Prediction of BBB penetration: CNS+ (Compounds with permeabilities Pe > 3.08 × 10^−6 cm/s could cross the BBB by passive diffusion (CNS+))
In vitro
  Papp at 10 h, 100 μg/mL: 9.89 ± 0.37 ×10⁻⁶ cm/s
[2]
  Inhibition ratio of p70S6K phosphorylation at 20 μmol/L (%): 81.20±1.60%

## Cc1ccsc1C(=O)Nc1ncc(N2CCOCC2)s1 [Compound 38, 3-Methyl-N-(5-morpholinothiazol-2-yl)thiophene-2-carboxamide]
[1]
  Prediction of BBB penetration: CNS+ (Compounds with permeabilities Pe > 3.08 × 10^−6 cm/s could cross the BBB by passive diffusion (CNS+))
In vitro
  Papp at 10 h, 100 μg/mL: 9.88 ± 0.75 ×10⁻⁶ cm/s
[2]
  Inhibition ratio of p70S6K phosphorylation at 20 μmol/L (%): 80.32±0.71%

## O=C(CCc1ccccc1)Nc1ncc(N2CCOCC2)s1 [Compound 52, N-(5-Morpholinothiazol-2-yl)-3-phenylpropanamide]
[1]
  Prediction of BBB penetration: CNS+ (Compounds with permeabilities Pe > 3.08 × 10^−6 cm/s could cross the BBB by passive diffusion (CNS+))
In vitro
  Papp at 10 h, 100 μg/mL: 10.5 ± 1.13 ×10⁻⁶ cm/s
[2]
  Inhibition ratio of p70S6K phosphorylation at 20 μmol/L (%): 81.60±1.86%

## CC(=O)Oc1ccccc1C(=O)Nc1ncc([N+](=O)[O-])s1 [NTZ, nitazoxanide, reference compound]
[3]; 30 mg/kg orally
  Escape latencies in MWM assay: significantly shortened the escape latencies
[5]
  Nesting test: obvious improvement in nesting test
In vitro
  Papp at 10 h, 100 μg/mL: 1.26 ± 0.21 ×10⁻⁶ cm/s
